#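 Briefly, cells in 96-well plates were exposed to five compound concentrations for 48 h, and endpoints were estimated by linear interpolation. GI50 is the concentration that inhibits growth by half. TGI marks complete inhibition of growth.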
# Experiments:
# Assay in all cases: DTP human tumour cell line panel, 48 h
# [1] = test system: SNB-75 CNS
# [2] = test system: MCF7 breast
# [3] = test system: CAKI-1 renal
# [4] = test system: ACHN renal
# [5] = test system: SK-MEL-5 melanoma
# [6] = test system: SK-OV-3 ovarian
# [7] = test system: NCI/ADR-RES ovarian
# [8] = test system: KM12 colon
# [9] = test system: BT-549 breast
# [10] = test system: EKVX NSCLC
# [11] = test system: IGROV1 ovarian
# [12] = test system: TK-10 renal
# [13] = test system: SN12C renal
# [14] = test system: HOP-62 NSCLC
# [15] = test system: OVCAR-4 ovarian
# [16] = test system: K-562 leukemia
# [17] = test system: HT29 colon
# [18] = test system: SF-295 CNS
# [19] = test system: LOX IMVI melanoma
# [20] = test system: 786-0 renal
# [21] = test system: HS 578T breast
# [22] = test system: RXF 393 renal
# [23] = test system: M14 melanoma
# [24] = test system: A498 renal
# [25] = test system: MOLT-4 leukemia
# [26] = test system: UACC-62 melanoma
# [27] = test system: SNB-19 CNS
# [28] = test system: SR leukemia
# [29] = test system: MDA-MB-435
# [30] = test system: T-47D breast
# [31] = test system: NCI-H226 lung
# [32] = test system: OVCAR-3 ovarian
# [33] = test system: HL-60(TB) leukemia
# [34] = test system: UO-31 renal
# [35] = test system: SF-539 CNS
# [36] = test system: MALME-3M melanoma
# [37] = test system: A549 NSCLC
# [38] = test system: OVCAR-5 ovarian
# [39] = test system: HOP-92 NSCLC
# [40] = test system: HCT-15 colon
# [41] = test system: COLO 205 colon
# [42] = test system: NCI-H23 lung
# [43] = test system: U251 CNS
# [44] = test system: SW-620 colon
# [45] = test system: OVCAR-8 ovarian
# [46] = test system: RPMI-8226 leukemia
# [47] = test system: SK-MEL-28 melanoma
# [48] = test system: HCC-2998 colon
# [49] = test system: NCI-H522 lung
# [50] = test system: PC-3 prostate
# [51] = test system: MDA-MB-231 breast
# [52] = test system: UACC-257 melanoma
# [53] = test system: CCRF-CEM leukemia
# [54] = test system: NCI-H460 lung
# [55] = test system: SK-MEL-2 melanoma
# [56] = test system: HCT-116 colon
# [57] = test system: DU-145 prostate
# [58] = test system: SF-268 CNS
smiles,measurement,setting,value
COc1cc2c(F)nccc2cc1C(=O)N[C@@H](c1ccc(F)c(Cl)c1)[C@@H]1C[C@@H](O)CN1,GI50,[1],0.074 µM
same,TGI,[1],1.51 µM
same,GI50,[2],0.575 µM
same,TGI,[2],12.1 µM
same,GI50,[3],0.355 µM
same,TGI,[3],14.6 µM
same,GI50,[4],9.59 µM
same,TGI,[4],22.3 µM
same,GI50,[5],14.7 µM
same,TGI,[5],28.1 µM
same,GI50,[6],0.268 µM
same,TGI,[6],13.7 µM
same,GI50,[7],14 µM
same,TGI,[7],47 µM
same,GI50,[8],1.69 µM
same,TGI,[8],19.3 µM
same,GI50,[9],0.487 µM
same,TGI,[9],4.81 µM
same,GI50,[10],2.02 µM
same,TGI,[10],17.8 µM
same,GI50,[11],0.0573 µM
same,TGI,[11],11.4 µM
same,GI50,[12],0.279 µM
same,TGI,[12],14.1 µM
same,GI50,[13],8.08 µM
same,TGI,[13],22.2 µM
same,GI50,[14],7.09 µM
same,TGI,[14],25.3 µM
same,GI50,[15],8.59 µM
same,TGI,[15],24.6 µM
same,GI50,[16],3.87 µM
same,TGI,[16],> 78.4 µM
same,GI50,[17],2.35 µM
same,TGI,[17],19.6 µM
same,GI50,[18],0.131 µM
same,TGI,[18],13.2 µM
same,GI50,[19],10.2 µM
same,TGI,[19],22.4 µM
same,GI50,[20],0.076 µM
same,TGI,[20],11.5 µM
same,GI50,[21],0.0715 µM
same,TGI,[21],2.41 µM
same,GI50,[22],0.0362 µM
same,TGI,[22],0.268 µM
same,GI50,[23],10.5 µM
same,TGI,[23],23.2 µM
same,GI50,[24],0.0301 µM
same,TGI,[24],1.89 µM
same,GI50,[25],0.188 µM
same,TGI,[25],> 41.6 µM
same,GI50,[26],0.514 µM
same,TGI,[26],16.9 µM
same,GI50,[27],0.847 µM
same,TGI,[27],18.5 µM
same,TGI,[28],> 41.9 µM
same,GI50,[29],2 µM
same,TGI,[29],17 µM
same,GI50,[30],0.0552 µM
same,TGI,[30],21.3 µM
same,GI50,[31],5.99 µM
same,TGI,[31],24.4 µM
same,GI50,[32],8.43 µM
same,TGI,[32],24.7 µM
same,GI50,[33],2.11 µM
same,TGI,[33],5.61 µM
same,GI50,[34],0.491 µM
same,TGI,[34],15.4 µM
same,GI50,[35],0.0677 µM
same,TGI,[35],11.1 µM
same,GI50,[36],0.716 µM
same,TGI,[36],15.4 µM
same,GI50,[37],3.14 µM
same,TGI,[37],39.6 µM
same,GI50,[38],13.1 µM
same,TGI,[38],45.6 µM
same,GI50,[39],0.291 µM
same,TGI,[39],7.83 µM
same,GI50,[40],0.838 µM
same,TGI,[40],16.4 µM
same,GI50,[41],3.1 µM
same,TGI,[41],19.4 µM
same,GI50,[42],11.1 µM
same,TGI,[42],26 µM
same,GI50,[43],1.49 µM
same,TGI,[43],17.8 µM
same,GI50,[44],6.39 µM
same,TGI,[44],23.6 µM
same,GI50,[45],13.2 µM
same,TGI,[45],28.9 µM
same,GI50,[46],7.72 µM
same,TGI,[46],40.1 µM
same,GI50,[47],4.48 µM
same,TGI,[47],20.2 µM
same,GI50,[48],0.875 µM
same,TGI,[48],19.5 µM
same,GI50,[49],12 µM
same,TGI,[49],26.7 µM
same,GI50,[50],0.54 µM
same,TGI,[50],> 43.3 µM
same,GI50,[51],11.3 µM
same,TGI,[51],25 µM
same,GI50,[52],1.33 µM
same,TGI,[52],19.6 µM
same,GI50,[53],0.299 µM
same,TGI,[53],> 42 µM
same,GI50,[54],0.623 µM
same,TGI,[54],15.8 µM
same,GI50,[55],11.4 µM
same,TGI,[55],25.2 µM
same,GI50,[56],3.31 µM
same,TGI,[56],17.2 µM
same,GI50,[57],6.84 µM
same,TGI,[57],24 µM
same,GI50,[58],3.64 µM
same,TGI,[58],21.6 µM
